Patent US20090010886A1, “Method for the Treatment of Myeloproliferative Diseases Using(+)-2-[1-(3-Ethoxy-4-Methoxyphenyl)-2- Methylsulfonylethyl]-4- Acetylaminoisoindoline-1,3- Dione” (CELGENE CORPORATION, priority 2004, published 2009)

Experiment: cardiovascular and respiratory function in anesthetized dogs (safety pharmacology)
Assay type: in vivo
Details: anesthetized Beagle dogs, three ascending doses 400, 800 and 1,200 mg/kg/day, infusion through the jugular vein
Description: The pharmacological properties of 3-(3,4-dimethoxy-phenyl)-3-(1-oxo-1,3-dihydro-isoindol-2-yl)-propionamide, including activity comparisons with thalidomide, are characterized in in vitro studies. Studies examine the effects of 3-(3,4-dimethoxy-phenyl)-3-(1-oxo-1,3-dihydro-isoindol-2-yl)-propionamide on the production of various cytokines. In addition, a safety pharmacology study of 3-(3,4-dimethoxy-phenyl)-3-(1-oxo-1,3-dihydro-isoindol-2-yl)-propionamide is conducted in dogs and the effects of the compound on ECG parameters are examined further as part of three repeat-dose toxicity studies in primates.
The effects of 3-(3,4-dimethoxy-phenyl)-3-(1-oxo-1,3-dihydro-isoindol-2-yl)-propionamide on cardiovascular and respiratory function are investigated in anesthetized dogs. Two groups of Beagle dogs (2/sex/group) are used. One group receives three doses of vehicle only and the other receives three ascending doses of 3-(3,4-dimethoxy-phenyl)-3-(1-oxo-1,3-dihydro-isoindol-2-yl)-propionamide (400, 800, and 1,200 mg/kg/day). In all cases, doses of 3-(3,4-dimethoxy-phenyl)-3-(1-oxo-1,3-dihydro-isoindol-2-yl)-propionamide or vehicle are successively administered via infusion through the jugular vein separated by intervals of at least 30 minutes. […]

With `COc1ccc(C(CC(N)=O)N2Cc3ccccc3C2=O)cc1OC` (stereo not shown) [3-(3,4-Dimethoxy-phenyl)-3-(1-oxo-1,3-dihydro-isoindol-2-yl)-propionamide] the “cardiovascular and respiratory changes compared to the vehicle control group” value was “minimal”.
